In this assay the target is T1, PD-1/PD-L1 (Homo sapiens, UniProt Q9NZQ7).
T1 construct: Recombinant human PD-L1 protein (19-238) with a His-tagged at the C-terminus; purchased AcroBiosystems PD1-H5229 (PD-L1); PD1-H5257 (PD-1)
Briefly: PD-1/PD-L1 homogeneous time-resolved fluorescence (HTRF) binding assay. The conditions noted are these: PD-1/PD-L1 HTRF binding, ~3 nM PD1, 10 nM PD-L1, 25° C., PBS pH 7.4. On the procedure: Assays were performed in standard black 384-well polystyrene plates and a final volume was 20 μL. The inhibitor was first serially diluted with DMSO and added to the wells of the plate, followed by the addition of other reaction components. The final concentration of DMSO in the assay was 1%. Assays were performed at 25° C. in PBS buffer (pH 7.4) containing 0.05% Tween-20 and 0.1% BSA. Recombinant human PD-L1 protein (19-238) with a His-tagged at the C-terminus was purchased from AcroBiosystems (PD1-H5229). Recombinant human PD-1 protein (25-167) with an Fc tag at the C-terminus was also purchased from AcroBiosystems (PD1-H5257). The PD-L1 and PD-1 proteins were diluted in assay buffer and then […] of the solution was extracted and added to the wells of the plate. Plates were centrifuged and proteins and inhibitors were preincubated for 40 minutes. After incubation, 0.1 μl of HTRF detection buffer containing europium […] labeled anti-human IgG (PerkinElmer-AD0212), Fc-specific and anti-His SureLight®-Allophycocyanin (APC, PerkinElmer-AD0059H) conjugated antibodies was added. After centrifugation, the plates were incubated at 25° C. for 60 minutes. Data was read in a PHERAstar FS plate reader (665 nm/620 nm ratio). Final concentrations in the assay were ˜3 nM PD1, 10 nM PD-L1, 1 nM europium anti-human IgG, and 20 nM anti-His-allophycocyanin. Activity data were fitted using GraphPad Prism 5_0 software to derive IC50 values for inhibitors.
For orientation: Time-resolved FRET reads energy transfer from a long-lived donor to a nearby acceptor.

Bounds are passed on as bounds.

T1 sequence (Q9NZQ7 19-238): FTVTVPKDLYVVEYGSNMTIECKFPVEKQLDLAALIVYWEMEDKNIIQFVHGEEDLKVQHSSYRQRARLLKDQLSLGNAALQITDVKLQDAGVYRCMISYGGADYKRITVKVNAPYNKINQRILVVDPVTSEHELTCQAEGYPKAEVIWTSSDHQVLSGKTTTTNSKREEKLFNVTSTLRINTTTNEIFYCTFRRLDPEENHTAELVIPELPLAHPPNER

The term IC50 denotes the concentration at which inhibition is half-maximal. High values mean lower potency, low ones higher potency. For `COc1nc(-c2cccc(-c3cccc(-c4nc5cc6c(c(C#N)c5o4)CC[C@H]6NCCC(=O)O)c3Cl)c2Cl)cnc1CN1CC[C@@H](O)C1` [Compound 039], the IC50 was not above 10 nM.

Take `Cc1c(Nc2nccc3cc(CN4CC[C@@H](O)C4)cnc23)cccc1-c1cccc(-c2nc3cc4c(c(C#N)c3o2)CC[C@H]4N2CC[C@@H](C(=O)O)C2)c1Cl` [Compound 040]: the half-maximal inhibitory concentration (IC50) was not above 10 nM.

`N#Cc1c2c(cc3nc(-c4cccc(-c5cccc(Nc6nccc7cc(CN8CC[C@@H](O)C8)cnc67)c5Cl)c4Cl)oc13)[C@@H](NCC(=O)NS(=O)(=O)C1CC1)CC2` [Compound 042] showed an IC50 not above 10 nM.

On to `CCOC(=O)CN[C@H]1CCc2c1cc1nc(-c3cccc(-c4cccc(Nc5nccc6cc(CN7CC[C@@H](O)C7)cnc56)c4Cl)c3Cl)oc1c2C#N` [Compound 043], for which the half-maximal inhibitory concentration (IC50) fell in the range of 10 to 100 nM.

In the case of `Cc1c(-c2nc3cc4c(c(C#N)c3o2)CC[C@H]4N2CC[C@@H](C(=O)O)C2)cccc1-c1cccc(Nc2nc(C(F)F)nc3cc(CN4CC[C@@H](O)C4)cnc23)c1Cl` [Compound 081], the IC50 is not above 10 nM.

Regarding `Cc1c(Nc2nc(C(F)F)nc3cc(CN4CC[C@@H](O)C4)cnc23)cccc1-c1cccc(-c2nc3cc4c(c(C#N)c3o2)CC[C@H]4N2CC[C@@H](C(=O)O)C2)c1Cl` [Compound 082], the concentration for half-maximal inhibition (IC50) is not above 10 nM.

Compound `N#Cc1c2c(cc3nc(-c4cccc(-c5cccc(Nc6nc(C(F)F)nc7cc(CN8CC[C@@H](O)C8)cnc67)c5Cl)c4Cl)oc13)[C@H](N1CC[C@@H](C(=O)O)C1)CC2` [Compound 083] returned an IC50 not above 10 nM.

On to `COc1nc(-c2cccc(-c3cccc(-c4nc5cc6c(c(C#N)c5o4)CC[C@H]6N4CC[C@@H](C(=O)NS(=O)(=O)C5(C)CC5)C4)c3C)c2C)cnc1CN1CC[C@@H](O)C1` [Compound 084], for which the IC50 was not above 10 nM.

In turn, `COc1nc(-c2cccc(-c3cccc(-c4nc5cc6c(c(C#N)c5o4)CC[C@H]6N4CC[C@@H](C(=O)NS(=O)(=O)C5(C)CC5)C4)c3Cl)c2Cl)cnc1CN1CC[C@@H](O)C1` [Compound 086] showed an IC50 not above 10 nM.

As to `N#Cc1c2c(cc3nc(-c4cccc(-c5cccc(Nc6nc(C(F)F)nc7cc(CN8CC[C@@H](O)C8)cnc67)c5Cl)c4Cl)oc13)[C@H](N1CC[C@@H](C(=O)NS(=O)(=O)C3CC3)C1)CC2` [Compound 087], the IC50 was not above 10 nM.

As to `CC1(S(=O)(=O)NC(=O)[C@@H]2CCN([C@@H]3CCc4c3cc3nc(-c5cccc(-c6cccc(Nc7nc(C(F)F)nc8cc(CN9CC[C@@H](O)C9)cnc78)c6Cl)c5Cl)oc3c4C#N)C2)CC1` [Compound 088], the half-inhibitory concentration (IC50) was not above 10 nM.

In turn, `COc1nc(-c2cccc(-c3cccc(-c4nc5cc6c(c(C#N)c5o4)CC[C@H]6N4CC[C@@H](C(=O)O)C4)c3Cl)c2Cl)cnc1CN1CC[C@@H](O)C1` [Compound 162] returned an IC50 not above 10 nM.

Turning to `COc1nc(-c2cccc(-c3cccc(-c4nc5cc6c(c(C#N)c5o4)CC[C@H]6N4CC[C@@H](C(=O)O)C4)c3Cl)c2C)cnc1CN1CC[C@@H](O)C1` [Compound 175], the IC50 was not above 10 nM.

`COc1nc(-c2cccc(-c3cccc(-c4nc5cc6c(c(C#N)c5o4)CC[C@H]6N4CC[C@@H](C(=O)O)C4)c3C)c2Cl)cnc1CN1CC[C@@H](O)C1` [Compound 182] yielded a 50% inhibitory concentration (IC50) not above 10 nM.

As to `COc1nc(-c2cccc(-c3cccc(-c4nc5cc6c(c(C#N)c5o4)CC[C@H]6N4CC[C@@H](C(=O)NS(=O)(=O)C5CC5)C4)c3Cl)c2C)cnc1CN1CC[C@@H](O)C1` [Compound 231], the concentration for half-maximal inhibition (IC50) is not above 10 nM.

In turn, `COc1nc(-c2cccc(-c3cccc(-c4nc5cc6c(c(C#N)c5o4)CC[C@H]6N4CC[C@@H](C(=O)NS(=O)(=O)C5CC5)C4)c3C)c2Cl)cnc1CN1CC[C@@H](O)C1` [Compound 232] displayed a half-maximal inhibitory concentration (IC50) not above 10 nM.

In the case of `COc1nc(-c2cccc(-c3cccc(-c4nc5cc6c(c(C#N)c5o4)CC[C@H]6N4CC[C@@H](C(=O)NS(=O)(=O)C5(C)CC5)C4)c3Cl)c2C)cnc1CN1CC[C@@H](O)C1` [Compound 233], the IC50 is not above 10 nM.

The values are drawn from patent US20220372031A1, “NOVEL TRICYCLIC AROMATIC HETEROCYCLIC COMPOUND, PREPARATION METHOD THEREFOR, PHARMACEUTICAL COMPOSITION AND APPLICATION THEREOF” (SHANGHAI LONGWOOD BIOPHARMACEUTICALS CO., LTD., priority 2019, published 2022).
